Assay results published in patent publication US7576212B2, “Thieno[2,3-B] pyridines as potassium channel inhibitors” (Xention Limited, priority 2004, dated 2009).

How the values were obtained:
[1] = biological target: T1, human Kv1.3 (Homo sapiens, UniProt P22001); experiment: Kv1.3 whole cell patch electrophysiology (AutoPatch / conventional); type: cell-based; settings: 1 μM compound; cells stably transfected with human Kv1.3; whole cell mode; room temperature
T1 construct: expressed in transfected cells
T1 sequence (P22001 whole entry): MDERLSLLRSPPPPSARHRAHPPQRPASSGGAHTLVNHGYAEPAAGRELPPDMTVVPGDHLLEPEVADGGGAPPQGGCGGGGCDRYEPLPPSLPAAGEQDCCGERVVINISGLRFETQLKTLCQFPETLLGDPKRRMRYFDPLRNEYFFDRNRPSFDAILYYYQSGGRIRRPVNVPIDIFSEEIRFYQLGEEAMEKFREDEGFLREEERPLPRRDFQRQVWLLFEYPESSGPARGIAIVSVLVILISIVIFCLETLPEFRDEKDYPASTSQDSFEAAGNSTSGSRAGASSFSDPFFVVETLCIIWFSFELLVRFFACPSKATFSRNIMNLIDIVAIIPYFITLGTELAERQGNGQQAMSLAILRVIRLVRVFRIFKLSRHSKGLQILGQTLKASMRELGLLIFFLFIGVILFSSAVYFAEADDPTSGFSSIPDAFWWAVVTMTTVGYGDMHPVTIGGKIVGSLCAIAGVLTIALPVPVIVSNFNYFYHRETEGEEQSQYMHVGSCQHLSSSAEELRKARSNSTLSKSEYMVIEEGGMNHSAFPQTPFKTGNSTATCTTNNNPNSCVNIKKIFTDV
Protocol: Kv1.3 Autopatch Electrophysiology Method
(§1) Cells stably transfected with cDNA for human Kv1.3 were grown in Dulbecco's Modified Eagle media (DMEM) alpha supplemented with 10% Fetal Calf Serum (FCS), 20 μl/ml penicillin (5000 U/ml) streptomycin (5000 μg/ml), 10 μl/ml [100×] glutamine, and blasticidin (7.5 μg/ml). Compounds were tested on these cells using the AutoPatch technology in whole cell mode.
The external bathing solution contained (in mM): 150 NaCl, 10 KCl, 1 MgCl2, 3 CaCl2, 10 HEPES, pH 7.4 with NaOH. Patch pipettes were filled with an electrode solution of composition (in mM): 100 K-Gluconate, 20 KCl, 1 MgCl2, 1 CaCl2, 10 HEPES, 11 EGTA, 5 ATP-Na2, 2 Glutathione pH 7.2 with KOH.
(§2) Compounds were dissolved in DMSO (100%) and made up in the external bather at a concentration of 1 μM. All experiments were conducted at room temperature (22-24° C.).
(§3) A cell suspension (10 ml), with a density of 100,000 cells/ml, was aliquoted into a 15 ml centrifuge tube and transferred to an incubator (37° C., 5% CO2) for approximately one hour before use. Following 60 min incubation, a tube was taken and centrifuged at 1000 rpm for 4 mins at room temperature. 9.5 ml supernatant was thence discarded, leaving a cell pellet at the bottom of the tube. The pellet was then resuspended using 100 μl of cold (4° C.), filtered (0.22 μm), 0.2% BSA/bather solution (0.02 g BSA/10 ml bather). The bottom of the tube was manually agitated gently until the solution became cloudy with cells. The 100 μl cell resuspension solution was then stored on the bench at 4° C. (using a Peltier-based temperature control device) until used.
(§4) A length of capillary glass (1B150F-4, WPI) was dipped into the cell suspension solution, such that ˜3 cm column of fluid was taken up by capillary action. A Ag/AgCl wire was dropped into the non-dipped end of the capillary also. The outside of the solution-filled end of the capillary was then dried and the capillary was loaded into the AutoPatch™. Borosilicate glass patch pipettes (from 1.5 mm OD, thin-walled filamented, GC150-TF capillary glass, Harvard) were pulled using a DMZ pipette puller (Zeitz Instruments), and were back-filled using the internal pipette solution, being careful that no bubbles remain at the tip or in the body of the pipette. Patch pipettes typically had resistances of 2.3-3.5 MΩ. Once filled, the pipette tip and a proportion of the shaft (˜15mm) were dipped into Sigmacote (Sigma). The recording pipette was then loaded into the AutoPatch™. Automated patch-clamping was initiated by the operator, but thereafter AutoPatch.exe continued the experiment providing that pre-set conditions and criteria were satisfied.
(§5) Whole cell patch-clamp recordings were made using the AutoPatch™ rig, which incorporated an EPC9 or EPC10 amplifier (HEKA, Germany) under control of Pulse software (v8.54 or v8.76, HEKA, Germany), a motion controller with 2 translators (Newport, UK), valve controller (VF1) and a c-level suction device all at room temperature (22-24° C.). This equipment was completely under the control of AutoPatch.exe and operator intervention was only made when there was a requirement to refill the drug reservoirs or to prevent the loss of a cell due to a technical error. Cells with an Rseries greater than 18 MΩ were discounted from the experiment.
(§6) Qualification stages prior to perfusion and drug application ensured that the observed current met the criteria for the experiment. Only those cells with an IK>400 pA were used for experiments. Cells were continuously perfused with external solution at a flow rate of 1.8-2 ml/minute. […] Online analysis of the hKv1.3 current during the application of compounds was performed by the AutoPatch™ software. Voltage-step protocols and analysis of data was performed as described for conventional electrophysiology.
Electrophysiology voltage-step protocols and analysis of data was performed as follows. Data was sampled at 5 kHz, and filtered with a −3 dB bandwidth of 2.5 kHz. […]

[2] = biological target: T2, human Kv1.5 (Homo sapiens, UniProt P22460); experiment: Kv1.5 whole cell patch electrophysiology (AutoPatch / conventional); type: cell-based; settings: 1 μM compound; cells stably transfected with human Kv1.5; whole cell mode; room temperature
T2 construct: expressed in transfected cells
T2 sequence (P22460 whole entry): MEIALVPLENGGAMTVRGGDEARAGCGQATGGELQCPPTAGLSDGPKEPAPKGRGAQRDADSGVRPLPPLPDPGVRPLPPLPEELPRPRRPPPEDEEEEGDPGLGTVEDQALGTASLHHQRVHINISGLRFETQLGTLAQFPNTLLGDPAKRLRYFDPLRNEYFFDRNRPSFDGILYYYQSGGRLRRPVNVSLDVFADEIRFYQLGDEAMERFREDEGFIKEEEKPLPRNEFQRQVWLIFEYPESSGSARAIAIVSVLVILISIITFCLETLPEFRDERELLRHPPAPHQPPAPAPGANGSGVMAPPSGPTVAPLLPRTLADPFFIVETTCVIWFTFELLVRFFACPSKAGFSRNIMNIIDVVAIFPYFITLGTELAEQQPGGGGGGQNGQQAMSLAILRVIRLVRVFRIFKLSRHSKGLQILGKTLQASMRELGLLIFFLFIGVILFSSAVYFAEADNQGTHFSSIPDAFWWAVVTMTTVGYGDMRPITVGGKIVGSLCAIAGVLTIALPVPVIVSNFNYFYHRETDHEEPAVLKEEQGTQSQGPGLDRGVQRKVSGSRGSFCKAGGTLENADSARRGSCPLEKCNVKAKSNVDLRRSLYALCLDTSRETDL
Protocol: Kv1.5 Autopatch Electrophysiology Method
as §1, with “Kv1.5 (in pEF6::VA-His-TOPO)” for “Kv1.3”
The external bathing solution contained (in mM): 150 NaCl, 10 KCl, 1 MgCl2, 3 CaCl2, 10 HEPES, pH 7.4 with NaOH. Patch pipettes were filled with an electrode solution of composition (in mM): 160 KCl, 0.5 MgCl2, 10 HEPES, 1 EGTA, pH 7.4 with KOH.
as §2, §3
as §4, with “(˜15 mm)” for “(˜15mm)”
as §5
as §6, with “IK>500” for “IK>400”, “hKv1.5” for “hKv1.3”
Electrophysiology voltage-step protocols and analysis of data was performed as follows. Data was sampled at 5kHz, and filtered with a −3 dB bandwidth of 2.5 kHz.
Cells were held at a voltage of −80 mV. […]

`Cc1cccc(CNc2cc(N(CCO)CCO)nc3scc(-c4ccc(F)cc4)c23)n1` [Example 28, 2-[{3-(4-Fluoro-phenyl)-4-[(6-methyl-pyridin-2-ylmethyl)-amino]-thieno[2,3-b]pyridin-6-yl}-(2-hydroxy-ethyl)-amino]-ethanol] gave an inhibition at 1 µM [1] of 20% and an inhibition at 1 µM [2] of 21%.
`OCCNc1cc(NCc2ccccn2)c2c(-c3ccccc3)csc2n1` [Example 24, 2-{3-Phenyl-4-[(pyridin-2-ylmethyl)-amino]-thieno[2,3-b]pyridin-6-ylamino}-ethanol] gave an inhibition at 1 µM [1] of 93% and an inhibition at 1 µM [2] of 79%.
With `OCC(CO)c1cc(NCc2ccccn2)c2c(-c3ccccc3)csc2n1` [Example 44, 2-{3-Phenyl-4-[(pyridin-2-ylmethyl)-amino]-thieno[2,3-b]pyridin-6-yl}-propane-1,3-diol] the inhibition at 1 µM [1] was 8% and the inhibition at 1 µM [2] was 82%.
In the case of `Cc1cccc(CNc2cc(Cl)nc3scc(-c4ccc(F)cc4)c23)n1` [Example 22, [6-Chloro-3-(4-fluoro-phenyl)-thieno[2,3-b]pyridin-4-yl]-(6-methyl-pyridin-2-ylmethyl)-amine], the inhibition at 1 µM [1] is reported as 78% and the inhibition at 1 µM [2] is reported as 95%.
With `Clc1cc(NCc2ccccn2)nc2scc(-c3ccccc3)c12` [Example 20, (4-Chloro-3-phenyl-thieno[2,3-b]pyridin-6-yl)-pyridin-2-ylmethyl-amine] the inhibition at 1 µM [1] was 99% and the inhibition at 1 µM [2] was 93%.
In the case of `OCCN(CCO)c1cc(NCc2ccccn2)c2c(-c3ccc(F)cc3)csc2n1` [Example 26, 2-[{3-(4-Fluoro-phenyl)-4-[(pyridin-2-ylmethyl)-amino]-thieno[2,3-b]pyridin-6-yl}-(2-hydroxy-ethyl)-amino]-ethanol], the inhibition at 1 µM [1] is reported as 45% and the inhibition at 1 µM [2] is reported as 91%.
In the case of `OCCNc1cc(NCc2ccccn2)c2c(-c3ccc(F)cc3)csc2n1` [Example 27, 2-{3-(4-Fluoro-phenyl)-4-[(pyridin-2-ylmethyl)-amino]-thieno[2,3-b]pyridin-6-ylamino}-ethanol], the inhibition at 1 µM [1] is reported as 72% and the inhibition at 1 µM [2] is reported as 55%.
Work on `Fc1ccc(-c2csc3nccc(NCc4ccccn4)c23)cc1` [Example 36, [3-(4-Fluoro-phenyl)-thieno[2,3-b]pyridin-4-yl]-pyridin-2-ylmethyl-amine] yielded an inhibition at 1 µM [1] of 32% and an inhibition at 1 µM [2] of 20%.
In the case of `Clc1cc(NCc2ccccn2)c2c(-c3ccccc3)csc2n1` [Example 19, (6-Chloro-3-phenyl-thieno[2,3-b]pyridin-4-yl)-pyridin-2-ylmethyl-amine], the inhibition at 1 µM [1] is reported as 72% and the inhibition at 1 µM [2] is reported as 88%.
With `c1ccc(-c2csc3nccc(NCc4ccccn4)c23)cc1` [Example 35, (3-Phenyl-thieno[2,3-b]pyridin-4-yl)-pyridin-2-ylmethyl-amine] the inhibition at 1 µM [1] was 45% and the inhibition at 1 µM [2] was 62%.
`Cc1cccc(CNc2ccnc3scc(-c4ccc(F)cc4)c23)n1` [Example 37, [3-(4-Fluoro-phenyl)-thieno[2,3-b]pyridin-4-yl]-(6-methyl-pyridin-2-ylmethyl)-amine] gave an inhibition at 1 µM [1] of 30% and an inhibition at 1 µM [2] of 36%.
In the case of `OCCN(CCO)c1cc(NCc2ccccn2)c2c(-c3ccccc3)csc2n1` [Example 25, 2-((2-Hydroxy-ethyl)-{3-phenyl-4-[(pyridin-2-ylmethyl)-amino]-thieno[2,3-b]pyridin-6-yl}-amino)-ethanol], the inhibition at 1 µM [1] is reported as 82% and the inhibition at 1 µM [2] is reported as 81%.
`Cc1cccc(CNc2cc(NCCO)nc3scc(-c4ccc(F)cc4)c23)n1` [Example 29, 2-{3-(4-Fluoro-phenyl)-4-[(6-methyl-pyridin-2-ylmethyl)-amino]-thieno[2,3-b]pyridin-6-ylamino}-ethanol] showed an inhibition at 1 µM [1] of 62% and an inhibition at 1 µM [2] of 31%.
`OCCc1cc(NCc2ccccn2)c2c(-c3ccccc3)csc2n1` [Example 43, 2-{3-Phenyl-4-[(pyridin-2-ylmethyl)-amino]-thieno[2,3-b]pyridin-6-yl}-ethanol] showed an inhibition at 1 µM [1] of 20% and an inhibition at 1 µM [2] of 94%.
Work on `Fc1ccc(-c2csc3nc(Cl)cc(NCc4ccccn4)c23)cc1` [Example 21, [6-Chloro-3-(4-fluoro-phenyl)-thieno[2,3-b]pyridin-4-yl]-pyridin-2-ylmethyl-amine] yielded an inhibition at 1 µM [1] of 71% and an inhibition at 1 µM [2] of 59%.
